In patent US6417397B1, “N-substituted alkylamino acids for use as amino-protecting groups” (The Regents of the University of California, San Diego, priority 1999, dated 2002):

Test: Acidolysis (rate of scission) of acylated NMeAib amides with 2% TFA in acetonitrile
Type: physicochemical
Conditions: for t½ of protecting group: mild acidic conditions (2% TFA in acetonitrile)
From the text: In accordance with the present invention, it has been discovered that the rate of reaction can be altered simply by modifying X. Thus, for electron-donating X groups the rate of scission (the sensitivity to acidic conditions) increases. The opposite effect holds true for electron-withdrawing X groups. Four p-substituted benzoyl-N—MeAib—Phe—OMe (7a-d) compounds were subjected to acidic conditions (2% trifluoroacetic acid (TFA) in acetonitrile) and the rate of scission measured for each protecting group.
The equation representing the line in FIG. 1 is particularly useful because it allows one to predict the rate of scission for any m-substituted or p-substituted X—C6H4C(O)—NMeAib amide where a for the parent acid is known. […]

[1] = acidolysis with 2% TFA in acetonitrile

| Molecule | half life predicted from the linear free energy equation of FIG. 1 (predicted from σ of the parent acid, X = dimethylamino) | t½ of protecting group | Half-life [1] | k [1] | Half-life (2% TFA in acetonitrile) |
| --- | --- | --- | --- | --- | --- |
| p-N(CH3)2C6H4C(O)—NMeAib | about 29 seconds | – | – | – | – |
| p-nitro-benzoyl-NMeAib | – | 12 h | – | – | – |
| COC(=O)[C@H](Cc1ccccc1)NC(=O)C(C)(C)N(C)C(=O)c1ccc(C(F)(F)F)cc1 [CF3, p-CF3—C6H4C(O)—NMeAib—Phe—OMe] | – | – | 5 h | 3.7e-05 ± 2e-06 s⁻¹ | – |
| COC(=O)[C@H](Cc1ccccc1)NC(=O)C(C)(C)N(C)C(=O)c1ccc([N+](=O)[O-])cc1 [NO2, p-NO2—C6H4—C(O)—NMeAib—Phe—OMe] | – | – | 12 h | 1.5e-05 ± 1e-06 s⁻¹ | about 12 hours |
| COC(=O)[C@H](Cc1ccccc1)NC(=O)C(C)(C)N(C)C(=O)c1ccc(Cl)cc1 [Cl, p-Cl—C6H4C(O)—NMeAib—Phe—OMe] | – | – | 2 h | 8.3e-05 ± 3e-06 s⁻¹ | about 2 hours |
| COC(=O)[C@H](Cc1ccccc1)NC(=O)C(C)(C)N(C)C(=O)c1ccc(C#N)cc1 [CN, p-CN—C6H4C(O)—NMeAib—Phe—OMe] | – | – | 8 h | 2.3e-05 ± 1e-06 s⁻¹ | – |
| COc1ccc(C(=O)N(C)C(C)(C)C(=O)O)cc1 [p-methoxy-benzoyl-NMeAib] | – | 0.333 h | – | – | – |
